According to the kinase profiling compilation of Christmann-Franck et al. (2016):

Experiments:
Experiment in all cases: Caliper, Mobility shift assay off-chip
BRSK2 (human) = BRSK2 (human) (UniProt Q8IWQ3)
CAMK4 (human) = CAMK4 (human) (UniProt Q16566)
CDK9 (human) = CDK9 (human) (UniProt P50750)
CHUK (human) = CHUK (human) (UniProt O15111)
CSNK1A1 (human) = CSNK1A1 (human) (UniProt P48729)
EEF2K (human) = EEF2K (human) (UniProt O00418)
EPHA1 (human) = EPHA1 (human) (UniProt P21709)
FGFR3 (human) = FGFR3 (human) (UniProt P22607)
HIPK1 (human) = HIPK1 (human) (UniProt Q86Z02)
IGF1R (human) = IGF1R (human) (UniProt P08069)
ITK (human) = ITK (human) (UniProt Q08881)
JAK2 JH1 JH2 (human) = JAK2 JH1 JH2 (human) (UniProt O60674)
JAK3 JH1 JH2 (human) = JAK3 JH1 JH2 (human) (UniProt P52333)
KIT (human) = KIT (human) (UniProt P10721)
MAPK1 (human) = MAPK1 (human) (UniProt P28482)
MAPK12 (human) = MAPK12 (human) (UniProt P53778)
MAPKAPK2 (human) = MAPKAPK2 (human) (UniProt P49137)
MELK (human) = MELK (human) (UniProt Q14680)
NTRK1 (human) = NTRK1 (human) (UniProt P04629)
PBK (human) = PBK (human) (UniProt Q96KB5)
PIM3 (human) = PIM3 (human) (UniProt Q86V86)
PTK2B (human) = PTK2B (human) (UniProt Q14289)
RPS6KA4 KD1 KD2 (human) = RPS6KA4 KD1 KD2 (human) (UniProt O75676)
SGK3 (human) = SGK3 (human) (UniProt Q96BR1)
SIK2 (human) = SIK2 (human) (UniProt Q9H0K1)
SRPK3 (human) = SRPK3 (human) (UniProt Q9UPE1)
STK4 (human) = STK4 (human) (UniProt Q13043)
TAOK2 (human) = TAOK2 (human) (UniProt Q9UL54)
TSSK1B (human) = TSSK1B (human) (UniProt Q9BXA7)
WNK2 (human) = WNK2 (human) (UniProt Q9Y3S1)
WNK3 (human) = WNK3 (human) (UniProt Q9BYP7)

Sequence of RPS6KA4 KD1 KD2 (human) (O75676 whole entry, looked up): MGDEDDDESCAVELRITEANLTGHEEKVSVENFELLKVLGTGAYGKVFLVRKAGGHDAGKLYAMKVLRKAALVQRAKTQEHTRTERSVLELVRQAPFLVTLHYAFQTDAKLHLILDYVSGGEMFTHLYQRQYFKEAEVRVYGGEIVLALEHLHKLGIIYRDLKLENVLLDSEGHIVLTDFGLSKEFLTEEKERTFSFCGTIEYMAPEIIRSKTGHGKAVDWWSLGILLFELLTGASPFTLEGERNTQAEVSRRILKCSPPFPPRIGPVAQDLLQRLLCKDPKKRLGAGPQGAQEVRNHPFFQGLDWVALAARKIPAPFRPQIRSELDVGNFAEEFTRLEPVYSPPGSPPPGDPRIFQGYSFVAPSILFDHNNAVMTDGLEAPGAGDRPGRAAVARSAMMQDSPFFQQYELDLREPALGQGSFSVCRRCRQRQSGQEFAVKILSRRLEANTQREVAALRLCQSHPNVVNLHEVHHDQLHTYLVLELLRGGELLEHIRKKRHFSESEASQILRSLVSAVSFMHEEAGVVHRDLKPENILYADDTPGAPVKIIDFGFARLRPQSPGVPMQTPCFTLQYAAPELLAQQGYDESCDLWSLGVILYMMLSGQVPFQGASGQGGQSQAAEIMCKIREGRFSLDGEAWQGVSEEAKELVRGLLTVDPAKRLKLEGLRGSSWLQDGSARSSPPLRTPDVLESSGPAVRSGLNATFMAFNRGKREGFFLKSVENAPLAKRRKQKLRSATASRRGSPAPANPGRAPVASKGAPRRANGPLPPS
Sequence of TSSK1B (human) (Q9BXA7 whole entry, looked up): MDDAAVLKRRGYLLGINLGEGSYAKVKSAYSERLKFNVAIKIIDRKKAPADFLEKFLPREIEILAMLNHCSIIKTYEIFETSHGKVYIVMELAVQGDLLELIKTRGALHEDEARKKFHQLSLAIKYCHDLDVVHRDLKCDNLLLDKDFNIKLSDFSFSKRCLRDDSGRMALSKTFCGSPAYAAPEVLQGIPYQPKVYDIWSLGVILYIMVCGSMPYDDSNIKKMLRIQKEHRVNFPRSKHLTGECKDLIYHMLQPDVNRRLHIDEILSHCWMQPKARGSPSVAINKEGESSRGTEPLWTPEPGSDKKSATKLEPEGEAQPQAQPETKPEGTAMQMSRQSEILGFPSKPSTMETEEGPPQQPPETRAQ
Sequence of PBK (human) (Q96KB5 whole entry, looked up): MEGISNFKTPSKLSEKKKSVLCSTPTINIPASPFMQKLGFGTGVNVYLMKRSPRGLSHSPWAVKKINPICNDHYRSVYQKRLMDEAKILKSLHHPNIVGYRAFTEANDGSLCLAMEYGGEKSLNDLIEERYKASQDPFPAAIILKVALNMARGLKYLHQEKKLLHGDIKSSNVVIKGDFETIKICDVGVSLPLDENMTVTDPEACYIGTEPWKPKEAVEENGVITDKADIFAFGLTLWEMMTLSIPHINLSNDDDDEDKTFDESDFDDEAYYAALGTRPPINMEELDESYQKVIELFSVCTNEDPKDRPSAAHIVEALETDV
Sequence of NTRK1 (human) (P04629 whole entry, looked up): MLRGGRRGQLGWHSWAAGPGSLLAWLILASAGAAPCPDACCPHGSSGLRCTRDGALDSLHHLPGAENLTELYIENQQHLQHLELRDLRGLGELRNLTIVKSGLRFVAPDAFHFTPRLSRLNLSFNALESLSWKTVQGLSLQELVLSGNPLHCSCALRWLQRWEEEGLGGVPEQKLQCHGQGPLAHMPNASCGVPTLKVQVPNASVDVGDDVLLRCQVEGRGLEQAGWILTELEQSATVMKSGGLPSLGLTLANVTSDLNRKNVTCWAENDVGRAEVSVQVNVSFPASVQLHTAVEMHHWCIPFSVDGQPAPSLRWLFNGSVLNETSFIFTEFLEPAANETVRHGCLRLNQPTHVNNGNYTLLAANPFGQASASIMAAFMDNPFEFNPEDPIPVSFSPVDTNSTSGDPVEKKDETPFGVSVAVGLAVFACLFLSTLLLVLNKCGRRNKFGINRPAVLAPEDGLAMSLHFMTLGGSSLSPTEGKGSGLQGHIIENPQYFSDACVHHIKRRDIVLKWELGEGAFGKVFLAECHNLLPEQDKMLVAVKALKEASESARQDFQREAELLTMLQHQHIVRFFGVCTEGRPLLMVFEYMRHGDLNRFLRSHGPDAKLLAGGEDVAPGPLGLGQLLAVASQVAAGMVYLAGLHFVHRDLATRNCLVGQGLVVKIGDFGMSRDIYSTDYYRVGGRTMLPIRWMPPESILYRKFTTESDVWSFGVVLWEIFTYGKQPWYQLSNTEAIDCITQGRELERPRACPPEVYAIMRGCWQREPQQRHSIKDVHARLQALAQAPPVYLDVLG
Sequence of JAK2 JH1 JH2 (human) (O60674 whole entry, looked up): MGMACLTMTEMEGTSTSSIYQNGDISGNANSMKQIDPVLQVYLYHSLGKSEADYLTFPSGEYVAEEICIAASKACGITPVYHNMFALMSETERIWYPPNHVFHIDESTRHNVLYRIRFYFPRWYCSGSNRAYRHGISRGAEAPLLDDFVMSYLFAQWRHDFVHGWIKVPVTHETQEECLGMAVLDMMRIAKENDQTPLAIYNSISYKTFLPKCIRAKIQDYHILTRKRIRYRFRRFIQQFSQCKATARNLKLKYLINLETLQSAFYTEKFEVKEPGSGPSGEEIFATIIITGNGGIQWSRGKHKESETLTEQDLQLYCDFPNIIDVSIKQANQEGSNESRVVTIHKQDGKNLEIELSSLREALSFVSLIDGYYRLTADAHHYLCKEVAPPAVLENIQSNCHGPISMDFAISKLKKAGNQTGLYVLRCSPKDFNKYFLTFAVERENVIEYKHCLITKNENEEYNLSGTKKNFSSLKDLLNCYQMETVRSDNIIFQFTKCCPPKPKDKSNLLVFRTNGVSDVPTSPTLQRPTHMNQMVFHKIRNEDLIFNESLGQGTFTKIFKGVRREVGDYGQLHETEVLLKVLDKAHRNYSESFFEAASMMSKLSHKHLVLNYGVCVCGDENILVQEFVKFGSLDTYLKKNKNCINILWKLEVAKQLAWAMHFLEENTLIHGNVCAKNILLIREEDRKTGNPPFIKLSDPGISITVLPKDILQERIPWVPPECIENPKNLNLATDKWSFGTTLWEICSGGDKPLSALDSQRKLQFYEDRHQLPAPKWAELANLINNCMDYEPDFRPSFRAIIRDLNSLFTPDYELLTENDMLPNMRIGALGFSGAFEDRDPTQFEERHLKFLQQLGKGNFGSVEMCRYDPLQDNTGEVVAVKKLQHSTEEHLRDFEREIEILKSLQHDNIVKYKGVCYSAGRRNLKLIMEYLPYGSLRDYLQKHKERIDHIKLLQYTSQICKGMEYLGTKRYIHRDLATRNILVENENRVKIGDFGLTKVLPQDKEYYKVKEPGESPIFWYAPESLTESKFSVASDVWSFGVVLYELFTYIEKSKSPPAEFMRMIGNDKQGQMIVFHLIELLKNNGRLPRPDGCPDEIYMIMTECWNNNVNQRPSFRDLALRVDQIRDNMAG
Sequence of MAPKAPK2 (human) (P49137 whole entry, looked up): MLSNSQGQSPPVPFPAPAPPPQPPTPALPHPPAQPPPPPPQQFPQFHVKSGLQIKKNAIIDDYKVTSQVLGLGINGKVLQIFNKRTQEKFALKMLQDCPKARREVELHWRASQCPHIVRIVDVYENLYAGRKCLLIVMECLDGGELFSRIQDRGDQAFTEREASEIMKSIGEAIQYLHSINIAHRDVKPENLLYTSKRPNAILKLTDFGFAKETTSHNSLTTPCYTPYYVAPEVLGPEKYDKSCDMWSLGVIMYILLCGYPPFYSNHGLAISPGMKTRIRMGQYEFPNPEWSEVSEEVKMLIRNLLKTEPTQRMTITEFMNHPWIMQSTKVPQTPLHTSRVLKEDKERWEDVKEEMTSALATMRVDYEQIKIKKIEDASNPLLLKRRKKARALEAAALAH
Sequence of EPHA1 (human) (P21709 whole entry, looked up): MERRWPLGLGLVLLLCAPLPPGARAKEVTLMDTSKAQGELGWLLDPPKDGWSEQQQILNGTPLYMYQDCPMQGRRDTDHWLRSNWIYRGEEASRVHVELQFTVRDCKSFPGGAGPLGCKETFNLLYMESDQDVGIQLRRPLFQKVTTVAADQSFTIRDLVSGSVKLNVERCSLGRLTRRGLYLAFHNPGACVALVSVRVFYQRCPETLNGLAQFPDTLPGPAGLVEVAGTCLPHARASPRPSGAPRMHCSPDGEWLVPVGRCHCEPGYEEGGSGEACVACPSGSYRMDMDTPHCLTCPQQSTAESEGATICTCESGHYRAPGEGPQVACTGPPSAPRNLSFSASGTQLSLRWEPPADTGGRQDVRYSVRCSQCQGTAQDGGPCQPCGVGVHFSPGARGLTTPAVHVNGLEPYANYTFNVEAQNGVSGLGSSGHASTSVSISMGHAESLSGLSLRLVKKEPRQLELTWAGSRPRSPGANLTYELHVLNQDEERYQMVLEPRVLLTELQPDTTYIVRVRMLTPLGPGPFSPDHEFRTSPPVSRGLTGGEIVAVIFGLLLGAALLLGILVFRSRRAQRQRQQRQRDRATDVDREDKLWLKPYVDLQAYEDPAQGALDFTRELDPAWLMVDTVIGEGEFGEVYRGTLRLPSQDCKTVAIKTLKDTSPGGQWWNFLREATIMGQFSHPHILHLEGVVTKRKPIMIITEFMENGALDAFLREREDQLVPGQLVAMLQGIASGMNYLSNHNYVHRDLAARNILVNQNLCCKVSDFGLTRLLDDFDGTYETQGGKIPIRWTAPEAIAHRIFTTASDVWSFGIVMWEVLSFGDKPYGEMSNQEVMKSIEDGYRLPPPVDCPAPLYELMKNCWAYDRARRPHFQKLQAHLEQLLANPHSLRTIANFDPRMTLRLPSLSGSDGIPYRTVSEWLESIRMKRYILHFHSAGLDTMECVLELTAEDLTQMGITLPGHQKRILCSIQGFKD

## CNC(=O)c1cc(Oc2ccc(NC(=O)Nc3ccc(Cl)c(C(F)(F)F)c3)cc2)ccn1
BRSK2 (human); compound 0.02 µM
  inhibition: -1.1%
BRSK2 (human); compound 0.2 µM
  inhibition: -1.3%
CAMK4 (human); compound 0.02 µM
  inhibition: -8.3%
CAMK4 (human); compound 0.2 µM
  inhibition: 1.9%
CDK9 (human); compound 0.02 µM
  inhibition: -7.5%
CDK9 (human); compound 0.2 µM
  inhibition: -6.7%
CHUK (human); compound 0.02 µM
  inhibition: 3.4%
CHUK (human); compound 0.2 µM
  inhibition: 1%
CSNK1A1 (human); compound 0.02 µM
  inhibition: -4.6%
CSNK1A1 (human); compound 0.2 µM
  inhibition: -2.9%
EEF2K (human); compound 0.02 µM
  inhibition: -3.9%
EEF2K (human); compound 0.2 µM
  inhibition: 0%
EPHA1 (human); compound 0.02 µM
  inhibition: -1.2%
EPHA1 (human); compound 0.2 µM
  inhibition: 8%
FGFR3 (human); compound 0.02 µM
  inhibition: 5.5%
FGFR3 (human); compound 0.2 µM
  inhibition: 51.7%
HIPK1 (human); compound 0.02 µM
  inhibition: -1.4%
HIPK1 (human); compound 0.2 µM
  inhibition: 3.9%
IGF1R (human); compound 0.02 µM
  inhibition: -1.8%
IGF1R (human); compound 0.2 µM
  inhibition: 5%
ITK (human); compound 0.02 µM
  inhibition: -2.9%
ITK (human); compound 0.2 µM
  inhibition: 7.5%
JAK2 JH1 JH2 (human); compound 0.02 µM
  inhibition: -3.6%
JAK2 JH1 JH2 (human); compound 0.2 µM
  inhibition: 8.1%
JAK3 JH1 JH2 (human); compound 0.02 µM
  inhibition: -3.6%
JAK3 JH1 JH2 (human); compound 0.2 µM
  inhibition: 8.1%
KIT (human); compound 0.02 µM
  inhibition: 32.9%
KIT (human); compound 0.2 µM
  inhibition: 89.8%
MAPK1 (human); compound 0.02 µM
  inhibition: -3.9%
MAPK1 (human); compound 0.2 µM
  inhibition: -4.1%
MAPK12 (human); compound 0.02 µM
  inhibition: -5.9%
MAPK12 (human); compound 0.2 µM
  inhibition: -0.3%
MAPKAPK2 (human); compound 0.02 µM
  inhibition: -7.2%
MAPKAPK2 (human); compound 0.2 µM
  inhibition: -2%
MELK (human); compound 0.02 µM
  inhibition: -4.3%
MELK (human); compound 0.2 µM
  inhibition: -1.1%
NTRK1 (human); compound 0.02 µM
  inhibition: 7.9%
NTRK1 (human); compound 0.2 µM
  inhibition: 37.2%
PBK (human); compound 0.02 µM
  inhibition: -6%
PBK (human); compound 0.2 µM
  inhibition: -5.2%
PIM3 (human); compound 0.02 µM
  inhibition: -1.8%
PIM3 (human); compound 0.2 µM
  inhibition: -4.2%
PTK2B (human); compound 0.02 µM
  inhibition: -2.8%
PTK2B (human); compound 0.2 µM
  inhibition: -2.7%
RPS6KA4 KD1 KD2 (human); compound 0.02 µM
  inhibition: -1.1%
RPS6KA4 KD1 KD2 (human); compound 0.2 µM
  inhibition: 2.6%
SGK3 (human); compound 0.02 µM
  inhibition: 0.8%
SGK3 (human); compound 0.2 µM
  inhibition: 10.7%
SIK2 (human); compound 0.02 µM
  inhibition: -3.8%
SIK2 (human); compound 0.2 µM
  inhibition: 3%
SRPK3 (human); compound 0.02 µM
  inhibition: -0.5%
SRPK3 (human); compound 0.2 µM
  inhibition: 7.9%
STK4 (human); compound 0.02 µM
  inhibition: -5.1%
STK4 (human); compound 0.2 µM
  inhibition: -3.5%
TAOK2 (human); compound 0.02 µM
  inhibition: 7.3%
TAOK2 (human); compound 0.2 µM
  inhibition: 48%
TSSK1B (human); compound 0.02 µM
  inhibition: -3.7%
TSSK1B (human); compound 0.2 µM
  inhibition: -2.9%
WNK2 (human); compound 0.02 µM
  inhibition: -8.6%
WNK2 (human); compound 0.2 µM
  inhibition: 3.6%
WNK3 (human); compound 0.02 µM
  inhibition: -8%
WNK3 (human); compound 0.2 µM
  inhibition: 3.9%
